For assay [1], the system named is RT-112. In words: Disruption of intracellular microtubule network (immunofluorescence). In kind it is cell-based, human. To be noted: RT-112 (T-DM1 ineligible), 5 nM ADC overnight. As to the method: (§1) On day 1, cells were harvested by trypsinization, resuspended in culture media, and then seeded in 8-well chamber slides at a density of 6×10^4 cells/well. Slides were incubated at 37° C./5% CO2 overnight. On day 2, media were aspirated to remove any unattached cells and then fresh media containing 5 nM ADC to be tested were added to the cells. Slides were incubated at 37° C./5% CO2 overnight. On day 3, each chamber was washed twice with 1×PBS. Cells were then fixed with 4% PFA for 20 min. At the end of fixation, the chambers were removed and slides were stained following standard immunofluorescence procedures. Briefly, cells were permeabilized using Triton X-100 and washed with 1×PBS containing Tween-20. Rabbit anti-human α-Tubulin Alexa-Fluor 488 (clone 11H10) was diluted by 1:100 in DAKO antibody diluent and added to the slides. After incubation at room temperature for 1 hour, slides were coversliped with ProLong® Gold Antifade Reagent containing DAPI. Stained cells were visualized by the Leica SP5 Confocal Microscope and the Leica Application Suite Advanced Fluorescence software suite.

For assay [2], the system named is SKOV-3. The description is as above. The class given is cell-based, human. To be noted: SKOV-3 (T-DM1 eligible), 5 nM ADC overnight. The method, then: as §1
The test system of assay [3] is NCI-N87. To be noted: read-out: In vitro potency (EC50 in pM); NCI-N87, 3 to 4 days. The method, then: A panel of human cancer cell lines expressing various levels of HER2 was used to evaluate the cytotoxic activity of bispecific ADC (Table 5 in Example 1). Briefly, cells were harvested, resuspended, and plated in serum-containing culture media at a density of 5,000 to 20,000 per well (depending on the growth kinetics of each cell line) of 96-well plates in a volume of 100 μL. A 2× concentration of each dose of antibody or ADC to be tested was prepared by diluting the test articles in culture medium. One hundred microliters of each test article was added to cells in triplicate such that the final dose curve ranged from 5 nM down to 0.08 pM in a stepwise 1:4 serial dilution series. The treated cells were incubated at 37° C./5% CO2 for 3 to 4 days, depending on the growth kinetics of each particular cell line. Cell viability was determined using Cell Titer Glo according to manufacturer's instructions. Data are analyzed by the GraphPad Prism software and presented as percent growth inhibition relative to the untreated control. EC50 values were determined using Sigmoidal non-linear regression analysis with GraphPad Prism software and were summarized in Table 6.

The subject of assay [4] is SKOV-3. Nature of the assay: In vitro cytotoxic activity (Cell Titer Glo). In kind it is cell-based, human. To be noted: SKOV-3, 3 to 4 days; read-out: In vitro potency (EC50 in pM). On the technique in general: In ATP-based viability assays light output follows the ATP content of the culture.
The test system of assay [5] is MDA-MB-361. Nature of the assay: In vitro cytotoxic activity (Cell Titer Glo). To be noted: MDA-MB-361, 3 to 4 days; read-out: In vitro potency (EC50 in pM). The class given is cell-based, human.
Assay [6] concerns JIMT-1. In words: In vitro cytotoxic activity (Cell Titer Glo). In kind it is cell-based, human. To be noted: JIMT-1, 3 to 4 days.
Assay [7] relates to RT-112. Nature of the assay: In vitro cytotoxic activity (Cell Titer Glo). In kind it is cell-based, human. To be noted: RT-112, 3 to 4 days.
The subject of assay [8] is ST996 model. In words: PDX tumor model (triple-negative, HER2 IHC 1+). In kind it is in vivo, Athymic nude mice. To be noted: Bs2-2T at 3 mg/kg. The method, then: All mouse experiments were carried out in compliance with the guidelines published by the Association for Assessment and Accreditation of Laboratory Animal Care (AAALAC) and protocols approved by the MedImmune Institutional Animal Care and Use Committee. Athymic nude mice between 4-8 weeks of age were used in the studies. In subcutaneous CBX models, animals were injected unilaterally on the right flank with tumor cells harvested from culture at a specific passage lot. In orthotopic CBX models, xenografts were established by injecting 5×10^6 cells per mouse (suspended in 50% matrigel) into the mammary fat pad on the right flank of animals. In PDX models, animals are implanted unilaterally on the flank with tumor fragments harvested from host animals each implanted from a specific passage lot. Pre-study tumor volumes were recorded for each experiment beginning approximately one week prior to its estimated start date. When tumors reach the appropriate tumor volume initiation (TVI) range (typically 150-250 mm^3), animals are randomized into treatment and control groups and dosing initiated. […] Animals were observed daily and tumor dimensions and body weights were measured and recorded twice weekly. Tumor volumes are calculated using the following formula: tumor volume=π÷6 (length×width^2). […]

Assay [9] deals with JIMT-1 model. In words: CBX orthotopic tumor model (T-DM1 non-responder). In kind it is in vivo, Athymic nude mice. To be noted: JIMT-1 orthotopic CBX; Bs2-4T at 3 mg/kg. As to the method: All mouse experiments were carried out in compliance with the guidelines published by the Association for Assessment and Accreditation of Laboratory Animal Care (AAALAC) and protocols approved by the MedImmune Institutional Animal Care and Use Committee. Athymic nude mice between 4-8 weeks of age were used in the studies. In subcutaneous CBX models, animals were injected unilaterally on the right flank with tumor cells harvested from culture at a specific passage lot. […] In PDX models, animals are implanted unilaterally on the flank with tumor fragments harvested from host animals each implanted from a specific passage lot. Pre-study tumor volumes were recorded for each experiment beginning approximately one week prior to its estimated start date. […] Animals were dosed once weekly unless otherwise specified with test articles via intravenous or intraperitoneal injection. Animals were observed daily and tumor dimensions and body weights were measured and recorded twice weekly.

The test system of assay [10] is T-DM1 resistant NCI-N87 tumor model. In words: In vivo tumor model with acquired T-DM1 resistance. Also on record: species or system mice. To be noted: weekly intravenous dosing, 3 mg/kg (pertuzumab 10 mg/kg), total of 4 doses.
Procedure: To establish an in vivo tumor model with acquired T-DM1 resistance, the T-DM1-resistant NCI-N87 cells were injected subcutaneously into the immune-deficient mice. The tumor-bearing mice were treated with 3 mg/kg of T-DM1. It appeared that the in vitro T-DM1 resistance was not fully translated into the in vivo resistance, reflected by considerable variations in tumor growth among animals. Thus, mice with large refractory tumors (˜1000 mm^3 in volume) were selected and the tumor tissue fragments were passaged to new mice until the tumors grew consistently in the presence of weekly treatment of 3 mg/kg T-DM1.
Assay [11] deals with MDA-MB-361 cells. The class given is cell-based, human. To be noted: MDA-MB-361, 10 pM, relative to untreated control.
Procedure: MDA-MB-361 cells were cultured under standard tissue culture conditions in Leibovitz's L-15 medium supplemented with 20% FBS. Cells were harvested by trypsinization, washed twice with PBS, and resuspended to 30,000 cells per mL in stem cell medium (SCM: DMEM/F12 supplemented with 20 ng/mL EGF, 10 ng/mL bFGF, 5 mg/mL insulin, 0.4% BSA and 1% knock-out serum replacement). […] At the end of treatment, the primary spheres were harvested, dissociated using 0.05% trypsin and resuspended at a density of 30,000 cells/mL in SCM containing the same antibody treatment as the primary sphere culture. Cells were then plated in triplicate into 96-well ultra-low attachment plates and incubated for 4 days. Sphere cell viability was determined using Cell Titer Glo according to manufacturer's instructions. Data are presented as fold of CSC sphere formation relative to the untreated control.
Assay [12] has as its system NCI-N87 cell. In words: Proliferation inhibition assay in serum-containing media. In kind it is cell-based, human. As to the method: Cell viability was determined using Cell Titer Glo from Promega according to manufacturer's instructions.

The term EC50 denotes the concentration that produces a half-maximal response.

For T-DM1 [reference compound], the “disruption of intracellular microtubule networks” value in assay [1] was “inactive”; in assay [2] it was “capable of disrupting microtubule networks”. Also, the concentration for a half-maximal effect (EC50) in assay [3] is 275 pM; in assay [4], 116 pM; in [5] it was 266 pM. Besides, the “In vitro potency (EC50 in pM)” value in [6] and in assay [7] was “Inactive” throughout. The entries for the “in vivo activity (tumor growth)” value in assay [8], in assay [9] and in assay [10] were “no activity”, “no activity” and “resistant”, respectively. The “inhibition of CSC sphere formation” value in assay [11] is recorded as “no activity”.

B1: 39S: lead optimized monoclonal antibody derived from the 1.39.1 antibody; VH SEQ ID NO:15, VL SEQ ID NO:16 (antibody, V domains shown)
VH: EVQLVESGGGLVKPGGSLRLSCAASGFTFSSYSMSWVRQAPGKGLEWVSSISSSSSYIYYADSVKGRFTISRDNAKNSLYLQMNSLRAEDTAVYYCARGGDAYNYYYFDYWGQGTLVTVSS
VL: DIVMTQTPLSLSVTPGQPASISCKSSQSVFFRSNNKNILAWYLQKPGQPPQLLIYWASSRESGVPDRFSGSGSGTDFTLKISRVEAEDVGVYYCQQYFGSPFTFGPGTKVDIK
As to B1, in [12], the “inhibition of cell proliferation” value is “limited activity”. The “inhibition of cell growth in combination” value in assay [12] (combined with trastuzumab or pertuzumab) is given as “strong synergistic effect”.

Values taken from US10160812B2, “Bispecific HER2 antibodies” (MedImmune, LLC, priority 2014, dated 2018).
